Laboratory results published in PMC11435058, “Synthesis of New Thiazole-Privileged Chalcones as Tubulin Polymerization Inhibitors with Potential Anticancer Activities” (Pharmaceuticals, 2024).

Experiments:
DU-145 = assay: NCI-60 anticancer screen (SRB; single dose and five doses); details: Homo sapiens
SF-539 = assay: as above; details: Homo sapiens
SK-MEL-5 = assay: as above; details: Homo sapiens
IGROV1 = assay: as above; details: Homo sapiens
SR = assay: as above; details: Homo sapiens
HS 578T = assay: as above; details: Homo sapiens
SNB-19 = assay: cells; details: Homo sapiens
MDA-MB-231/ATCC = assay: NCI-60 anticancer screen (SRB; single dose and five doses); details: Homo sapiens
HCC-2998 = assay: as above
KM12 = assay: as above; details: Homo sapiens
RPMI-8226 = assay: as above; details: Homo sapiens
CCRF-CEM = assay: NCI-60 anticancer screen (SRB; single dose 10 μM and five doses); details: Homo sapiens
HOP-62 = assay: NCI-60 anticancer screen (SRB; single dose and five doses); details: Homo sapiens
SK-OV-3 = assay: as above; details: Homo sapiens
UO-31 = assay: as above; details: Homo sapiens
OVCAR-4 = assay: as above; details: Homo sapiens
MDA-MB-435 = assay: as above; details: Homo sapiens
CAKI-1 = assay: as above; details: Homo sapiens
OVCAR-5 = assay: as above; details: Homo sapiens
HT29 = assay: as above; details: Homo sapiens
LOX IMVI = assay: as above; details: Homo sapiens
MCF7 = assay: as above; details: Homo sapiens
EKVX = assay: as above; details: Homo sapiens
TK-10 = assay: as above; details: Homo sapiens
HCT-116 = assay: as above; details: Homo sapiens
OVCAR-8 = assay: as above; details: Homo sapiens
SF-295 = assay: as above; details: Homo sapiens
NCI/ADR-RES = assay: as above; details: Homo sapiens
NCI-H23 = assay: as above; details: Homo sapiens
[1] = 48 h, read-out: Growth Percentage

Cc1[nH]c(=S)sc1C(=O)/C=C/c1ccc([N+](=O)[O-])cc1 [2i, (E)-1-(4-Methyl-2-Thioxo-2,3-Dihydrothiazol-5-yl)-3-(4-Nitrophenyl)Prop-2-En-1-One]
GI50 (DU-145; DU-145): 3.41 µM | activity at 10 µM (DU-145; DU-145, 48 h, read-out: Growth Percentage): 21.4% | CC50 (DU-145; DU-145, read-out: LC50): 34.5 µM | IC (TGI) (DU-145; DU-145, read-out: TGI): 11 µM | GI50 (SF-539; SF-539): 2.31 µM | activity at 10 µM (SF-539; SF-539, 48 h, read-out: Growth Percentage): -25.2% | IC (TGI) (SF-539; SF-539, read-out: TGI): 7.02 µM | GI50 (SK-MEL-5; SK-MEL-5): 12 µM | activity at 10 µM (SK-MEL-5; SK-MEL-5, 48 h, read-out: Growth Percentage): 53.8% | CC50 (SK-MEL-5; SK-MEL-5, read-out: LC50): 49.7 µM | IC (TGI) (SK-MEL-5; SK-MEL-5, read-out: TGI): 24.4 µM | GI50 (IGROV1; IGROV-1): 4.43 µM | activity at 10 µM (IGROV1; IGROV-1, 48 h, read-out: Growth Percentage): 16.1% | CC50 (IGROV1; IGROV-1, read-out: LC50): 50.8 µM | IC (TGI) (IGROV1; IGROV-1, read-out: TGI): 14.9 µM | GI50 (SR): 2.86 µM | activity at 10 µM (SR; [1]): -4.81% | CC50 (SR; read-out: LC50): > 100 µM | IC (TGI) (SR; read-out: TGI): > 100 µM | GI50 (HS 578T): 13 µM | activity at 10 µM (HS 578T; [1]): 68.1% | CC50 (HS 578T; read-out: LC50): 80.9 µM | IC (TGI) (HS 578T; read-out: TGI): 32.4 µM | GI50 (SNB-19; SNB-19): 5.42 µM | activity at 10 µM (SNB-19; SNB-19, 48 h, read-out: Growth Percentage): 41.2% | CC50 (SNB-19; SNB-19, read-out: LC50): 43.2 µM | IC (TGI) (SNB-19; SNB-19, read-out: TGI): 18.3 µM | GI50 (MDA-MB-231/ATCC; MDA-MB-231): 12 µM | activity at 10 µM (MDA-MB-231/ATCC; MDA-MB-231, 48 h, read-out: Growth Percentage): 10.8% | CC50 (MDA-MB-231/ATCC; MDA-MB-231, read-out: LC50): 51.5 µM | IC (TGI) (MDA-MB-231/ATCC; MDA-MB-231, read-out: TGI): 24.8 µM | GI50 (HCC-2998; Homo sapiens, HCC 2998): 9.37 µM | activity at 10 µM (HCC-2998; Homo sapiens, HCC 2998, 48 h, read-out: Growth Percentage): -11.9% | CC50 (HCC-2998; Homo sapiens, HCC 2998, read-out: LC50): 47 µM | TGI (HCC-2998; five-dose, Colon Cancer HCC-2998): 21.5 µM | GI50 (KM12; KM12): 3.8 µM | activity at 10 µM (KM12; KM12, 48 h, read-out: Growth Percentage): -72.5% | CC50 (KM12; KM12, read-out: LC50): 40 µM | IC (TGI) (KM12; KM12, read-out: TGI): 13.6 µM | GI50 (RPMI-8226; RPMI-8226): 3.55 µM | activity at 10 µM (RPMI-8226; RPMI-8226, 48 h, read-out: Growth Percentage): -7.9% | CC50 (RPMI-8226; RPMI-8226, read-out: LC50): > 100 µM | IC (TGI) (RPMI-8226; RPMI-8226, read-out: TGI): > 100 µM | GI50 (CCRF-CEM): 4.56 µM | activity at 10 µM (CCRF-CEM; [1]): -7.25% | IC (TGI) (CCRF-CEM; read-out: TGI): > 100 µM | GI50 (HOP-62; HOP-62): 6.43 µM | activity at 10 µM (HOP-62; HOP-62, 48 h, read-out: Growth Percentage): 21.6% | CC50 (HOP-62; HOP-62, read-out: LC50): 67.7 µM | IC (TGI) (HOP-62; HOP-62, read-out: TGI): 23.2 µM | GI50 (SK-OV-3; SK-OV-3): 18.6 µM | activity at 10 µM (SK-OV-3; SK-OV-3, 48 h, read-out: Growth Percentage): 108% | CC50 (SK-OV-3; SK-OV-3, read-out: LC50): 76.9 µM | IC (TGI) (SK-OV-3; SK-OV-3, read-out: TGI): 37.8 µM | GI50 (UO-31; UO-31): 4.86 µM | activity at 10 µM (UO-31; UO-31, 48 h, read-out: Growth Percentage): -41.3% | IC (TGI) (UO-31; UO-31, read-out: TGI): 18.8 µM | GI50 (OVCAR-4; OVCAR-4): 14.9 µM | activity at 10 µM (OVCAR-4; OVCAR-4, 48 h, read-out: Growth Percentage): 49.2% | CC50 (OVCAR-4; OVCAR-4, read-out: LC50): 53.8 µM | IC (TGI) (OVCAR-4; OVCAR-4, read-out: TGI): 28.3 µM | GI50 (MDA-MB-435; MDA-MB-435): 7.39 µM | activity at 10 µM (MDA-MB-435; MDA-MB-435, 48 h, read-out: Growth Percentage): 3.76% | CC50 (MDA-MB-435; MDA-MB-435, read-out: LC50): 50.9 µM | IC (TGI) (MDA-MB-435; MDA-MB-435, read-out: TGI): 21.1 µM | GI50 (CAKI-1; CAKI-1): 13.9 µM | activity at 10 µM (CAKI-1; CAKI-1, 48 h, read-out: Growth Percentage): 31.1% | CC50 (CAKI-1; CAKI-1, read-out: LC50): 52.7 µM | IC (TGI) (CAKI-1; CAKI-1, read-out: TGI): 27.1 µM | GI50 (OVCAR-5; OVCAR-5): 17.8 µM | activity at 10 µM (OVCAR-5; OVCAR-5, 48 h, read-out: Growth Percentage): 110% | CC50 (OVCAR-5; OVCAR-5, read-out: LC50): 58.2 µM | IC (TGI) (OVCAR-5; OVCAR-5, read-out: TGI): 32.2 µM | GI50 (HT29; HT-29): 10.7 µM | activity at 10 µM (HT29; HT-29, 48 h, read-out: Growth Percentage): 62.8% | CC50 (HT29; HT-29, read-out: LC50): 68.7 µM | IC (TGI) (HT29; HT-29, read-out: TGI): 27.1 µM | GI50 (LOX IMVI): 1.85 µM | activity at 10 µM (LOX IMVI; [1]): -86.2% | CC50 (LOX IMVI; read-out: LC50): 8.91 µM | IC (TGI) (LOX IMVI; read-out: TGI): 4.06 µM | GI50 (MCF7; MCF7): 2.67 µM | activity at 10 µM (MCF7; MCF7, 48 h, read-out: Growth Percentage): 5.51% | CC50 (MCF7; MCF7, read-out: LC50): 51.3 µM | IC (TGI) (MCF7; MCF7, read-out: TGI): 11.7 µM | GI50 (EKVX): 16.4 µM | activity at 10 µM (EKVX; [1]): 74.7% | CC50 (EKVX; read-out: LC50): 58.1 µM | IC (TGI) (EKVX; read-out: TGI): 30.9 µM | GI50 (TK-10; TK-10): 12.4 µM | activity at 10 µM (TK-10; TK-10, 48 h, read-out: Growth Percentage): 12.9% | CC50 (TK-10; TK-10, read-out: LC50): 51.3 µM | IC (TGI) (TK-10; TK-10, read-out: TGI): 25.3 µM | GI50 (HCT-116; HCT-116): 2.78 µM | activity at 10 µM (HCT-116; HCT-116, 48 h, read-out: Growth Percentage): -47.8% | CC50 (HCT-116; HCT-116, read-out: LC50): 44.3 µM | IC (TGI) (HCT-116; HCT-116, read-out: TGI): 7.89 µM | GI50 (OVCAR-8; OVCAR-8): 7.73 µM | activity at 10 µM (OVCAR-8; OVCAR-8, 48 h, read-out: Growth Percentage): 7.06% | CC50 (OVCAR-8; OVCAR-8, read-out: LC50): 65.2 µM | IC (TGI) (OVCAR-8; OVCAR-8, read-out: TGI): 23.9 µM | GI50 (SF-295; SF-295): 16.1 µM | activity at 10 µM (SF-295; SF-295, 48 h, read-out: Growth Percentage): 86.1% | CC50 (SF-295; SF-295, read-out: LC50): 56.5 µM | IC (TGI) (SF-295; SF-295, read-out: TGI): 30.2 µM | GI50 (NCI/ADR-RES): 14.9 µM | activity at 10 µM (NCI/ADR-RES; [1]): -4.45% | CC50 (NCI/ADR-RES; read-out: LC50): 82.8 µM | IC (TGI) (NCI/ADR-RES; read-out: TGI): 35.2 µM | GI50 (NCI-H23; NCI-H23): 12.2 µM | activity at 10 µM (NCI-H23; NCI-H23, 48 h, read-out: Growth Percentage): 49.2% | CC50 (NCI-H23; NCI-H23, read-out: LC50): 52.6 µM | IC (TGI) (NCI-H23; NCI-H23, read-out: TGI): 25.3 µM
